Results taken from paper PMC7226602, “Exploring Biased Agonism at FPR1 as a Means to Encode Danger Sensing” (Cells, 2020).
Where a SMILES comes first, the peptide text is derived from it. Where no end group is shown, it is not given here. The star is where a group is joined. For = O=C*

Experiments:
human FPR1 [1] = target: T1, human FPR1 (Homo sapiens, UniProt P21462); experiment: cell-based
T1 construct: expressed in transfected cells
T1 sequence (P21462 1-350): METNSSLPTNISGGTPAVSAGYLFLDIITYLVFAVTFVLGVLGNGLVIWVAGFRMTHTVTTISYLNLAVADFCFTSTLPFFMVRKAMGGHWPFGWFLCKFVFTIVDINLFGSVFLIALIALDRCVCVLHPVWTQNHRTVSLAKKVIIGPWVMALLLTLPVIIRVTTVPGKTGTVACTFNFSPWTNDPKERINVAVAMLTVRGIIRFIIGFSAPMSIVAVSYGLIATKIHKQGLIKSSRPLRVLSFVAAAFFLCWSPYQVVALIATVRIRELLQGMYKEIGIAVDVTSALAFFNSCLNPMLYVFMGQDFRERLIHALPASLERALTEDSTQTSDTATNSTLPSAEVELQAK

human FPR1 [2] = target: T1, human FPR1; experiment: HTRF-based quantification of MAPK/ERK phosphorylation (ERK1/2 Thr202/Tyr204); type: cell-based; conditions: HeLa-FPR1 cells serum-starved 2 h, agonist 5 min, 37 °C, HTRF phospho-ERK1/2, four-parameter fit, Hill 1, mean and SEM, at least 5 independent measurements; for EC50: read-out: ERK1/2 Activation logEC50 (converted)
human FPR1 [3] = target: T1, human FPR1; experiment: Flow cytometric analysis of agonist-induced receptor internalization; type: cell-based; conditions: HeLa-FPR1 cells; for EC50: agonist 15 min, 37 °C, flow cytometry of surface FLAG-FPR1 (M1 antibody), mean and SEM, 6 independent measurements, NR = no response, read-out: Internalization logEC50 (converted)
[4] = solvent DMSO; as indicated by the manufacturer; ref manufacturer; cited from earlier work
[5] = target: human formyl peptide receptor 1 (FPR1), N-terminally FLAG-tagged (human) (UniProt P21462)

Molecule: CC[C@H](C)[C@H](NC(=O)[C@H](CCSC)NC=O)C(=O)N[C@H](C(=O)N[C@H](C(=O)N[C@@H](CC(C)C)C(=O)O)[C@@H](C)CC)C(C)C [fMIVIL] (For-MIVIL-OH)
- EC50 (human FPR1 [1]): 0.871 nM
- EC50 (human FPR1 [2]): 1.55 nM
- EC50 (human FPR1 [3]): 79.4 nM

Molecule: CC[C@H](C)[C@H](NC(=O)[C@H](CC(C)C)NC(=O)[C@H](CCCCN)NC(=O)[C@H](CCSC)NC(=O)[C@H](CC(C)C)NC(=O)[C@@H]1CCCN1C(=O)[C@H](CC(N)=O)NC(=O)[C@@H](NC(=O)[C@H](CCCCN)NC(=O)[C@H](CCCNC(=N)N)NC(=O)[C@H](CCSC)NC(=O)[C@@H]1CCCN1C(=O)[C@@H](NC(=O)[C@H](CCSC)NC=O)[C@@H](C)O)[C@@H](C)O)C(=O)N[C@@H](CC(N)=O)C(=O)O [CYTB] (For-MTPMRKTNPLMKLIN-OH)
- EC50 (human FPR1 [1]): 3020 nM
- EC50 (human FPR1 [2]): 7760 nM

Molecule: CSCC[C@H](NC=O)C(=O)N[C@@H](CC(C)C)C(=O)N[C@@H](Cc1ccccc1)C(=O)O [fMLF, formyl-methionyl-leucyl-phenylalanine]
- Solubility [4]: 4000 µg/mL

Molecule: CC(C)C[C@H](NC(=O)CN)C(=O)N[C@@H](CC(C)C)C(=O)N[C@@H](Cc1c[nH]c2ccccc12)C(=O)N[C@H](C(=O)N[C@@H](CCC(=O)O)C(=O)N[C@H](C(=O)NCC(=O)NCC(=O)N[C@@H](CCC(=O)O)C(=O)NCC(=O)N1CCC[C@H]1C(=O)NCC(=O)N1CCC[C@H]1C(=O)N[C@H](C(=O)O)[C@@H](C)O)C(C)C)C(C)C [gG2p20] (H-GLLWVEVGGEGPGPT-OH)
- EC50 (human FPR1 [1]; HeLa-FPR1 cells, 5 µM forskolin + 500 µM IBMX with agonist, 30 min, 37 °C, HTRF, […], mean and SEM, at least 7 independent measurements, read-out: cAMP Formation logEC50 (converted)): 437 nM
- EC50 (human FPR1 [2]): 708 nM
- Solubility [4]: 2000 µg/mL

Molecule: CSCC[C@H](NC=O)C(=O)N[C@@H](CC(N)=O)C(=O)N1CCC[C@H]1C(=O)N[C@@H](CC(C)C)C(=O)N[C@@H](C)C(=O)N[C@@H](CCC(N)=O)C(=O)O [MT-ND2] (For-MNPLAQ-OH)
- EC50 (human FPR1 [1]): 2040 nM
- EC50 (human FPR1 [2]): 6170 nM

Molecule: CC[C@H](C)[C@H](NC(=O)[C@H](Cc1ccccc1)NC(=O)[C@H](Cc1c[nH]c2ccccc12)NC(=O)[C@H](C)NC(=O)[C@H](CCC(N)=O)NC(=O)[C@H](CCCCN)NC(=O)[C@H](CC(C)C)NC(=O)[C@H](Cc1ccccc1)NC(=O)[C@H](CCC(=O)O)NC(=O)[C@H](CO)NC(=O)[C@@H](NC(=O)[C@H](CCSC)NC(=O)[C@H](C)NC(C)=O)C(C)C)C(=O)N[C@@H](CCC(=O)O)C(=O)N[C@@H](CC(N)=O)C(=O)N[C@@H](CCC(=O)O)C(=O)N[C@@H](CCC(=O)O)C(=O)N[C@@H](CCC(N)=O)C(=O)N[C@@H](CCC(=O)O)C(=O)N[C@@H](Cc1ccc(O)cc1)C(=O)N[C@H](C(=O)N[C@@H](CCC(N)=O)C(=O)N[C@H](C(=O)N[C@H](C(=O)N[C@@H](CCCCN)C(=O)O)C(C)C)[C@@H](C)O)C(C)C [Ac2-26] (Ac-AMVSEFLKQAWFIENEEQEYVQTVK-OH)
- EC50 (human FPR1 [1]): 49000 nM
- EC50 (human FPR1 [2]): 74100 nM

Molecule: CSCC[C@H](NC=O)C(=O)N[C@@H](CCSC)C(=O)N[C@@H](Cc1ccc(O)cc1)C(=O)N[C@@H](C)C(=O)N[C@@H](CC(C)C)C(=O)N[C@@H](Cc1ccccc1)C(=O)O [MT-ND6] (For-MMYALF-OH)
- EC50 (human FPR1 [1]): 74.1 nM
- EC50 (human FPR1 [2]): 2.19 nM
- EC50 (human FPR1 [3]): 776 nM

Molecule: COc1cc(/C=N/NC(=O)c2ccc3c(c2)OCO3)ccc1OCc1ccccc1 [FPRA14]
- cAMP Formation logEC50 (human FPR1 [1]; HeLa-FPR1 cells, 5 µM forskolin + 500 µM IBMX with agonist, 30 min, 37 °C, HTRF, […], mean and SEM, at least 7 independent measurements): −5.94 0.19
- ERK1/2 Activation logEC50 (human FPR1 [2]): −6.06 0.05
- agonist-induced FPR1 internalization (decrease of cell surface-associated FPR1 pool), in words (human FPR1 [3]; 15 min after agonist addition, flow cytometry): did not elicit detectable internalization
- Solubility [4]: 100 mM

Molecule: For-MMYALF
- EmaxA of agonist-induced FPR1 internalization, HeLa-FPR1 cells (flow cytometry, 15 min; normalised to 10^-4 M W-peptide) (fraction of the maximum system response) [5]: 0.63
- EmaxA of inhibition of forskolin-induced cAMP formation, HeLa-FPR1 cells (HTRF, 30 min; normalised to forskolin) (fraction of the maximum system response) [5]: 0.66
- logEC50 of agonist-induced FPR1 internalization, HeLa-FPR1 cells (flow cytometry, 15 min) (log M (unit not given)) [5]: -6.11
- logEC50 of inhibition of forskolin-induced cAMP formation, HeLa-FPR1 cells (HTRF, 30 min) (log M (unit not given)) [5]: -7.13

Molecule: Ac-AMVSEFLKQAWFIENEEQEYVQTVK [acetylated peptide Ac2-26 corresponding to the N-terminus of human annexin A1]
- EmaxA of inhibition of forskolin-induced cAMP formation, HeLa-FPR1 cells (HTRF, 30 min; normalised to forskolin) (fraction of the maximum system response) [5]: 0.63
- logEC50 of inhibition of forskolin-induced cAMP formation, HeLa-FPR1 cells (HTRF, 30 min) (log M (unit not given)) [5]: -4.31

Molecule: For-MTPMRKTNPLMKLIN [formylated peptide corresponding to the N-terminus of human cytochrome b (CYTB; f…)]
- EmaxA of inhibition of forskolin-induced cAMP formation, HeLa-FPR1 cells (HTRF, 30 min; normalised to forskolin) (fraction of the maximum system response) [5]: 0.39
- logEC50 of inhibition of forskolin-induced cAMP formation, HeLa-FPR1 cells (HTRF, 30 min) (log M (unit not given)) [5]: -5.52

Molecule: WKYMVM [synthetic agonist W-peptide (WKYMVm)]
- EmaxA of agonist-induced FPR1 internalization, HeLa-FPR1 cells (flow cytometry, 15 min; normalised to 10^-4 M W-peptide) (fraction of the maximum system response) [5]: 1
- EmaxA of inhibition of forskolin-induced cAMP formation, HeLa-FPR1 cells (HTRF, 30 min; normalised to forskolin) (fraction of the maximum system response) [5]: 0.82
- logEC50 of agonist-induced FPR1 internalization, HeLa-FPR1 cells (flow cytometry, 15 min) (log M (unit not given)) [5]: -7.66
- logEC50 of inhibition of forskolin-induced cAMP formation, HeLa-FPR1 cells (HTRF, 30 min) (log M (unit not given)) [5]: -8.96

Molecule: GLLWVEVGGEGPGPT (not fully specified) [gG-2p20 peptide derived from the secreted glycoprotein sgG-2 of herpes simplex virus type 2 (HSV-2)]
- EmaxA of inhibition of forskolin-induced cAMP formation, HeLa-FPR1 cells (HTRF, 30 min; normalised to forskolin) (fraction of the maximum system response) [5]: 0.68
- logEC50 of inhibition of forskolin-induced cAMP formation, HeLa-FPR1 cells (HTRF, 30 min) (log M (unit not given)) [5]: -6.36

Molecule: For-MNPLAQ
- EmaxA of inhibition of forskolin-induced cAMP formation, HeLa-FPR1 cells (HTRF, 30 min; normalised to forskolin) (fraction of the maximum system response) [5]: 0.63
- logEC50 of inhibition of forskolin-induced cAMP formation, HeLa-FPR1 cells (HTRF, 30 min) (log M (unit not given)) [5]: -5.69

Molecule: For-MIVIL [formylated pentapeptide fMIVIL from Listeria monocytogenes]
- EmaxA of agonist-induced FPR1 internalization, HeLa-FPR1 cells (flow cytometry, 15 min; normalised to 10^-4 M W-peptide) (fraction of the maximum system response) [5]: 0.97
- EmaxA of inhibition of forskolin-induced cAMP formation, HeLa-FPR1 cells (HTRF, 30 min; normalised to forskolin) (fraction of the maximum system response) [5]: 0.82
- logEC50 of agonist-induced FPR1 internalization, HeLa-FPR1 cells (flow cytometry, 15 min) (log M (unit not given)) [5]: -7.1
- logEC50 of inhibition of forskolin-induced cAMP formation, HeLa-FPR1 cells (HTRF, 30 min) (log M (unit not given)) [5]: -9.06
